Common to all, as to format: cell-based
The test system of assay [1] is OCILY1. Kind of assay: DLBCL cell line growth inhibition (Cell Titer Glo Luminescent Assay), OCILY1. Conditions: read-out: PJ34 IC50. The procedure: (§1) 6 DLBCL cell lines were treated by increasing doses of PARP inhibitor (PJ34 hydrochloride). DLBCL cell lines growth was quantified with a Cell Titer Glo Luminescent Assay (Promega, Madison, Wis., USA) and the 50% inhibitory concentration (IC50) was determined using GraphPad Prism software (http://www.graphpad.com/scientific-software/prism/) (FIG. 7A).
(In general: In ATP-based viability assays light output follows the ATP content of the culture.)

The test system of assay [2] is U2932. The assay is described as follows: DLBCL cell line growth inhibition (Cell Titer Glo Luminescent Assay), U2932. Conditions: read-out: PJ34 IC50. The procedure: as §1
Assay [3] relates to HT. The assay is described as follows: DLBCL cell line growth inhibition (Cell Titer Glo Luminescent Assay), HT. Conditions: read-out: PJ34 IC50. The procedure: as §1
In assay [4] the test system is DLBCL cell lines. The assay is described as follows: DLBCL cell lines growth inhibition (Cell Titer Glo Luminescent Assay), panel of 6 cell lines. The procedure: as §1
In assay [5] the test system is OCILY7. The assay is described as follows: DLBCL cell line growth inhibition (Cell Titer Glo Luminescent Assay), OCILY7. Conditions: OCILY7 cell line (high HRR score). The procedure:
as §1

The test system of assay [6] is DOHH2. The assay is described as follows: DLBCL cell line growth inhibition (Cell Titer Glo Luminescent Assay), DOHH2. Conditions: DOHH cell line (high HRR score). The procedure: as §1
The test system of assay [7] is OCILY3. Kind of assay: DLBCL cell line growth inhibition (Cell Titer Glo Luminescent Assay), OCILY3. Conditions: read-out: PJ34 IC50. The procedure: as §1

Molecules are shown by their SMILES. pIC50: −log10 of the molar value. Read-outs that look alike come from different tables or passages of the source.

The pIC50 is the IC50 on a negative log10 scale, so that one unit is a factor of ten.

`CN(C)CC(=O)Nc1ccc2[nH]c(=O)c3ccccc3c2c1.Cl` [PJ34, PJ34 hydrochloride]: the pIC50 in assay [1] was 5.12; in assay [2] it was 5.14; in assay [3] it was 5.09; in assay [4] (DLBCL cell lines with a lower HRR score, read-out: median IC50) it was 5.13; in assay [4] (median over 6 DLBCL cell lines) it was 5.11; in assay [5] it was 4.86. The pIC50 in assay [6] is 4.82; in assay [7] it was 5.14. For the same compound, the “sensitivity to PARPi” value in assay [4] (DLBCL cell lines with a high BER score, excluding the cell lines with a high HRR score) is listed as “sensitive”. Further, in assay [4] (two DLBCL cell lines with high HRR score compared to cell lines with a lower HRR score), the “fold higher resistance to PARPi” value came to 2 fold.

(Values after US10676791B2, “Methods for predicting response to DNA repair pathway inhibitors in diffuse large B-cell lymphoma” (INSERM (INSTITUT NATIONAL DE LA SANTÉ ET DE LA RECHERCHE …, priority 2014, dated 2020).)
